The values below come from patent US20080233216A1, “Composition Comprising the Extract of Siegesbeckiae Herba For Preventing and Treating Arthritis and the Use Thereof” (Industry Academic Cooperation Foundation Of Kyunghee …, priority 2006, published 2008).

Molecules are shown by their SMILES.

Common to all, as to assay type: in vivo
Assay [1] concerns Male ICR mouse. The assay is described as follows: Arachidonic acid induced ear edema. The conditions noted are these: 100 mg/kg oral; ear thickness 1 hour after arachidonic acid. The procedure: In order to determine the anti-inflammatory activity of inventive extract, following test using arachidonic acid-induced ear edema was performed according to method disclosed in the literature (Zhou H et al., Biol. Pharm. Bull., 29(2) pp 253-260, 2006).
Male ICR mouse (Jung Ang laboratory animal, Japan) weighing from 20 to 30 g was used as an experimental animal and each group consists of 10 mice. […] After 1 hour, the increased rate of ear thickness was calculated by comparing with that of left ear and the result was shown in Table 3.

Assay [2] deals with Male ICR mouse. Nature of the assay: Acetic acid induced writhing analgesia test. The settings on record: 100 mg/kg oral, 1 h before 0.7% acetic acid; writhing counted 10 min. The procedure: In order to determine the analgesic activity of the inventive extract of the present invention, acetic acid-induced writhing test was performed according to the method disclosed in the literature as follows (Whittle B A, Brit. J. Pharmacol. Chemother., 22, pp 246-253, 1964).
Male ICR mouse (Jung Ang laboratory animal, Japan) weighing from 20 to 25 g was acclimated for several days and each group consists of 10 mice.

Assay [3] deals with Male ICR mouse. Nature of the assay: Croton oil induced ear oedema. The conditions noted are these: 100 mg/kg oral; ear thickness 4 hours after 2.5% croton oil. On the procedure: In order to determine the anti-inflammatory activity of inventive extract, following test using croton oil-induced ear edema was performed according to method disclosed in the literature (Zhang B et al., Eur. J. Pharmacol., 530(1-2), pp 166-171, 2006).
Male ICR mouse (Jung Ang laboratory animal, Japan) weighing from 20 to 30 g was used as an experimental animal and each group consists of 6 mice. […] After 4 hours, the increased rate of ear thickness was calculated by comparing with that of left ear and the result was shown in Table 4.

Consider `Cc1ccc(-c2cc(C(F)(F)F)nn2-c2ccc(S(N)(=O)=O)cc2)cc1` [Celecoxib], for which the entries for the “Inhibition rate of edema (%)” value with Male ICR mouse [1] and with Male ICR mouse [3] were 25.29% and 33.12%, respectively. Moreover, the “Inhibition of writhing (%)” value in the assay on Male ICR mouse [2] stood at 61.9%.
